molecular target: Tyrosine-protein kinase Lck (Homo sapiens, UniProt P06239); assay: Inhibition of Lck by lance assay
Sequence (P06239 whole entry): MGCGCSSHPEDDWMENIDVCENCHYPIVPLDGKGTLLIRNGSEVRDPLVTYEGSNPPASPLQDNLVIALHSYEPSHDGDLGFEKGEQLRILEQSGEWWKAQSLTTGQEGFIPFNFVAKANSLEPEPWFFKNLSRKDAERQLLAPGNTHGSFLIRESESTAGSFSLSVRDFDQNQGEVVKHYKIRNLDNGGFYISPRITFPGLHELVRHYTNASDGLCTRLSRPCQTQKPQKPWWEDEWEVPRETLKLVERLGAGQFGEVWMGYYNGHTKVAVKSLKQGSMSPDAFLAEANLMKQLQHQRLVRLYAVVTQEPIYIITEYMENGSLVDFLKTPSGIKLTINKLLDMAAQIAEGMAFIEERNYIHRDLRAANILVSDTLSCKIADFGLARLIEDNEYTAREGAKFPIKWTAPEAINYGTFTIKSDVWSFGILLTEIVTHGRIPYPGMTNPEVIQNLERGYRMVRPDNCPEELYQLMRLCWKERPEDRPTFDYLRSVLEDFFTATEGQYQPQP

| SMILES | IC50 [nM] |
| --- | --- |
| Cc1nc(Nc2cc(-n3c(Nc4c(C)cccc4Cl)nc4ccccc43)ncn2)cc(N2CCN(CCO)CC2)n1 | 25 |
| Cc1cccc(Cl)c1Nc1nc2ccccc2n1-c1cc(Nc2ncnc(NCCN3CCOCC3)c2C)ncn1 | 119 |
| Cc1nc(NCCN2CCOCC2)cc(Nc2cc(-n3c(Nc4c(C)cccc4Cl)nc4ccccc43)ncn2)n1 | 5 |
| Cc1cccc(Cl)c1Nc1nc2ccccc2n1-c1cc(Nc2ccc(CCN3CCOCC3)cn2)ncn1 | 31 |
| Cc1cccc(Cl)c1Nc1nc2ccccc2n1-c1cc(Nc2cc(CN3CCOCC3)ccn2)ncn1 | 14 |
| Cc1cc(C)c(Nc2nc3ccccc3n2-c2cc(N)ncn2)c(Br)c1 | 1360 |
| Cc1cc(C)c(Nc2nc3ccccc3n2-c2cc(N)ncn2)c(C)c1 | 1780 |
| Cc1cccc(Cl)c1Nc1nc2ccccc2n1-c1cc(N)ncn1 | 514 |

Further lines, results first:

| IC50 [nM] | SMILES |
| --- | --- |
| > 2500 | Cc1cccc(Cl)c1Nc1nc2ccccc2n1-c1cc(Cl)ncn1 |
| > 2500 | Cc1cccc(Cl)c1Nc1nc2ccccc2n1-c1cc(NN2CCOCC2)ncn1 |
| 789 | CCN(CC)CCCCNc1cc(-n2c(Nc3c(C)cccc3Cl)nc3ccccc32)ncn1 |
| 2090 | Cc1cccc(Cl)c1Nc1nc2ccccc2n1-c1ccncn1 |
| > 2500 | Cc1cccc(Cl)c1Nc1nc2ccccc2n1-c1cc(N2CCOCC2)ncn1 |
